Data on 21 molecules can be found in US11976057B2, “MrgX2 antagonists” (GlaxoSmithKline Intellectual Property Development Limited, priority 2020, dated 2024).

The test deals with T1, human MRGPRX2 (Homo sapiens, UniProt Q96LB1).
T1 sequence (Q96LB1 1-330): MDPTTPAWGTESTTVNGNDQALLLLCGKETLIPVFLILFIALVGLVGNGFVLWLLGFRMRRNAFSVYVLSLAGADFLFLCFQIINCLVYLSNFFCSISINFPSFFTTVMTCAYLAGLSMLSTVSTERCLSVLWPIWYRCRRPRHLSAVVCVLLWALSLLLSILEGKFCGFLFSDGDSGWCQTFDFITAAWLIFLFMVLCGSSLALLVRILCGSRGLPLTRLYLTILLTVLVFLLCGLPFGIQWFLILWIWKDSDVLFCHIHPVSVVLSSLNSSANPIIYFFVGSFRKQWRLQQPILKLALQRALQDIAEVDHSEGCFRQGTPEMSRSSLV
The test can be described thus: Ca2+ mobilization assay (FLIPR TETRA): inhibition of Cortistatin-14 mediated MRGPRX2 activation.

The term IC50 denotes the midpoint of a concentration-inhibition curve. Higher therefore signals a need for much substance. Molecule `C[C@@H](C(=O)Nc1ccc(F)cn1)N1CCC(F)(F)C(c2c[nH]c(=O)c(C(N)C(F)(F)F)c2)C1` (stereo partly drawn) [Example 232, (2S)-2-(3-(5-(1-amino-2,2,2-trifluoroethyl)-6-oxo-1,6-dihydropyridin-3-yl)-4,4-difluoropiperidin-1-yl)-N-(5-fluoropyridin-2-yl)propanamide] gave an IC50 of 100 to 3160 nM.
The value for `CNCc1cc(C2CN(C(C)C(=O)Nc3ccc(Oc4ccc(F)cc4)cn3)CCC2(F)F)c[nH]c1=O` (stereo not drawn) [Example 237, 2-(4,4-difluoro-3-(5-((methylamino)methyl)-6-oxo-1,6-dihydropyridin-3-yl)piperidin-1-yl)-N-(5-(4-fluorophenoxy)pyridin-2-yl)propanamide] was at most 10 nM; that for `CC(C(=O)Nc1ccc(Oc2ccc(F)cc2)cn1)N1CCC(F)(F)C(c2c[nH]c(=O)c(CNCCO)c2)C1` (stereo not drawn) [Example 238, 2-(4,4-difluoro-3-(5-(((2-hydroxyethyl)amino)methyl)-6-oxo-1,6-dihydropyridin-3-yl)piperidin-1-yl)-N-(5-(4-fluorophenoxy)pyridin-2-yl)propanamide] was at most 10 nM.
The value for `COCCNCc1cc(C2CN(C(C)C(=O)Nc3ccc(Oc4ccc(F)cc4)cn3)CCC2(F)F)c[nH]c1=O` (stereo not drawn) [Example 239, 2-(4,4-difluoro-3-(5-(((2-methoxyethyl)amino)methyl)-6-oxo-1,6-dihydropyridin-3-yl)piperidin-1-yl)-N-(5-(4-fluorophenoxy)pyridin-2-yl)propanamide] was at most 10 nM; that for `C[C@@H](C(=O)Nc1ccc(Oc2ccc(F)cc2F)cn1)N1CCC(F)(F)[C@@H](c2c[nH]c(=O)c(CN3CCC(F)(F)CC3)c2)C1` [Example 240, (S)-N-(5-(2,4-difluorophenoxy)pyridin-2-yl)-2-((S)-3-(5-((4,4-difluoropiperidin-1-yl)methyl)-6-oxo-1,6-dihydropyridin-3-yl)-4,4-difluoropiperidin-1-yl)propanamide] was at most 10 nM.
The value for `C[C@@H](C(=O)Nc1ccc(Oc2ccc(F)cc2F)cn1)N1CCC(F)(F)[C@@H](c2c[nH]c(=O)c(CNC3CC(F)(F)C3)c2)C1` [Example 241, (S)-2-((S)-3-(5-(((3,3-difluorocyclobutyl)amino)methyl)-6-oxo-1,6-dihydropyridin-3-yl)-4,4-difluoropiperidin-1-yl)-N-(5-(2,4-difluorophenoxy)pyridin-2-yl)propanamide] was at most 10 nM; that for `C[C@@H](C(=O)Nc1ccc(Oc2ccc(F)cc2F)cn1)N1CCC(F)(F)[C@@H](c2c[nH]c(=O)c(CNCC(F)(F)F)c2)C1` [Example 242, (S)-2-((S)-4,4-difluoro-3-(6-oxo-5-(((2,2,2-trifluoroethyl)amino)methyl)-1,6-dihydropyridin-3-yl)piperidin-1-yl)-N-(5-(2,4-difluorophenoxy)pyridin-2-yl)propanamide] was at most 10 nM.
The molecule `CNCc1cc([C@H]2CN([C@@H](C)C(=O)Nc3ccc(Oc4ccc(F)cc4F)cn3)CCC2(F)F)c[nH]c1=O` [Example 243, (S)-2-((S)-4,4-difluoro-3-(5-((methylamino)methyl)-6-oxo-1,6-dihydropyridin-3-yl)piperidin-1-yl)-N-(5-(2,4-difluorophenoxy)pyridin-2-yl)propanamide] displayed an IC50 of at most 10 nM.
In the case of `CNCc1cc([C@H]2CN([C@@H](C)C(=O)Nc3cnc(Oc4ccc(F)cc4F)cn3)CCC2(F)F)c[nH]c1=O` [Example 244, (S)-2-((S)-4,4-difluoro-3-(5-((methylamino)methyl)-6-oxo-1,6-dihydropyridin-3-yl)piperidin-1-yl)-N-(5-(2,4-difluorophenoxy)pyrazin-2-yl)propanamide], the IC50 was at most 10 nM.
The value for `CC(C(=O)Nc1ccc(F)cn1)N1CCC(F)(F)C(c2c[nH]c(=O)c(C#N)c2)C1` (stereo not drawn) [Example 249, 2-(3-(5-cyano-6-oxo-1,6-dihydropyridin-3-yl)-4,4-difluoropiperidin-1-yl)-N-(5-fluoropyridin-2-yl)propanamide] was 100 to 3160 nM; that for `CC(C(=O)Nc1cnc(Oc2ccc(F)cc2)cn1)N1CCC(F)(F)C(c2c[nH]c(=O)c(C#N)c2)C1` (stereo not drawn) [Example 250, 2-(3-(5-cyano-6-oxo-1,6-dihydropyridin-3-yl)-4,4-difluoropiperidin-1-yl)-N-(5-(4-fluorophenoxy)pyrazin-2-yl)propanamide] was 100 to 3160 nM.
The value for `C[C@@H](C(=O)Nc1ccc(Oc2ccc(F)cc2)cn1)N1CCC(F)(F)[C@@H](c2c[nH]c(=O)c(C#N)c2)C1` [Example 251, (S)-2-((S)-3-(5-cyano-6-oxo-1,6-dihydropyridin-3-yl)-4,4-difluoropiperidin-1-yl)-N-(5-(4-fluorophenoxy)pyridin-2-yl)propanamide] was at most 10 nM; that for `C[C@@H](C(=O)Nc1ccc(Oc2ccc(F)cc2)cn1)N1CCC(F)(F)[C@@H](c2c[nH]c(=O)c(C(N)=O)c2)C1` [Example 252, 5-((S)-4,4-difluoro-1-((S)-1-((5-(4-fluorophenoxy)pyridin-2-yl)amino)-1-oxopropan-2-yl)piperidin-3-yl)-2-oxo-1,2-dihydropyridine-3-carboxamide] was at most 10 nM; that for `CC(C(=O)Nc1ccc(F)cn1)N1CCC(F)(F)C(c2c[nH]c(=O)c(C(N)=O)c2)C1` (stereo not drawn) [Example 253] was 100 to 3160 nM.
The value for `C[C@@H](C(=O)Nc1ccc(Oc2ccc(F)cc2)cn1)N1CCC(F)(F)[C@@H](c2cc[n+]([O-])c(CO)c2)C1` [Example 254, 4-((S)-4,4-difluoro-1-((S)-1-((5-(4-fluorophenoxy)pyridin-2-yl)amino)-1-oxopropan-2-yl)piperidin-3-yl)-2-(hydroxymethyl)pyridine 1-oxide] was at most 10 nM; that for `C[C@@H](C(=O)Nc1ccc(Oc2ccc(F)cc2F)cn1)N1CCC(F)(F)[C@@H](c2cc[n+]([O-])c(CO)c2)C1` [Example 255] was at most 10 nM; that for `CC(C(=O)Nc1ccc(F)cn1)N1CCC(F)(F)C(c2cc[n+]([O-])c(C(O)C(F)(F)F)c2)C1` (stereo not drawn) [Example 256, 4-(4,4-difluoro-1-(1-((5-fluoropyridin-2-yl)amino)-1-oxopropan-2-yl)piperidin-3-yl)-2-(2,2,2-trifluoro-1-hydroxyethyl)pyridine 1-oxide] was 10 to 100 nM.
With `CC(C(=O)Nc1ccc(Oc2ccc(F)cc2)cn1)N1CCC(F)(F)C(c2cc[n+]([O-])c(C(O)C(F)(F)F)c2)C1` (stereo not drawn) [Example 257], the IC50 is 10 to 100 nM.
In turn, `CC(C(=O)Nc1cnc(Oc2ccc(F)cc2F)cn1)N1CCC(F)(F)C(c2cc[n+]([O-])c(C(N)=O)c2)C1` (stereo not drawn) [Example 260, 2-carbamoyl-4-(1-(1-((5-(2,4-difluorophenoxy)pyrazin-2-yl)amino)-1-oxopropan-2-yl)-4,4-difluoropiperidin-3-yl)pyridine 1-oxide] had an IC50 of at most 10 nM.
Take `CC(=O)NCc1cc(C2CN(C(C)C(=O)Nc3ccc(F)cn3)CCC2(F)F)cc[n+]1[O-]` (stereo not drawn) [Example 263]: the IC50 was 100 to 3160 nM.
In the case of `CC(C(=O)Nc1ccc(Oc2cccc(=O)[nH]2)cn1)N1CCC(F)(F)[C@@H](c2ccc(=O)[nH]c2)C1` (stereo partly drawn) [Example 267, 2-((S)-4,4-difluoro-3-(6-oxo-1,6-dihydropyridin-3-yl)piperidin-1-yl)-N-(5-((6-oxo-1,6-dihydropyridin-2-yl)oxy)pyridin-2-yl)propanamide], the IC50 fell in the range of 10 to 100 nM.
